Marks after values point to notes of the source that are not given here.
How the values were obtained:
Format in all cases: in vivo
[1] = tested on: rats with hemorrhagic stroke; experiment: Hemorrhagic stroke: neurological deficit (Stroke-index McGrow scale); details: for Number of animals with neurological symptoms, %: Circus movements / Number of animals with neurological symptoms, %: Palsy of 1-4 extremities / Number of animals with neurological symptoms, %: Paresis of 1-4 extremities / Number of animals with neurological symptoms, %: Weakness of extremities: 20 mg/kg single dose intraperitoneally; for Rats with severe neurological symptoms: control with hemorrhagic stroke 60%
Description: (§1) White nondescript male rats with body weight 200-250 g, which lived in vivarium and had feed (standard palletized feed) and water ad libitum, with natural alternation of day and night, were used in the experiments. Hemorrhagic stroke (local cerebral hemorrhage) was simulated according to method by A. N. Makarenko et al. (Method of local hemorrhage simulation I various structures of the brain in experimental animals. Journal Visshei Nervnoy Deyatelnosti—Journal of Higher Nervous Activities, 2002, v. 52, No 6, p. 765-768). In nembutal-anesthetized rats (40 mg/kg, i.m.) destruction of the brain tissue in capsule interna area was made with the use of special device (mandarin-knife) followed by application of blood (0.02-0.03 ml) taken from under the rat's tongue to the damaged area (within 2-3 minutes). False-operated animals underwent scalping and craniotomy. The animals were divided into 5 groups: intact rats, false-operated rats, animals with hemorrhagic stroke received nooglutyl at 20 mg/kg, and animals with hemorrhagic stroke received Compound I at 20 mg/kg. Effects were recorded within 24 hours and 14 days after the surgery. Learning ability and memory of the rats was examined in the model of passive avoidance response (PAR, Passive Avoidance supplied by Lafayette Instrument Co., USA). To determine neurological deficit in the animals Stroke-index McGrow scale modified by I. V. Gannushkina (Functional architectonics of the brain, Moscow, Medicina, 1977, 224 p.) was used. The severity of the condition was determined by the sum of the points. The number of rats with mild symptoms up to 2.5 points of Stroke-index scale (apathy, weakness of the extremities, unilateral semiptosis, tremor, circus movements) and severe manifestations of neurological disorders (3 to 10 points)—paresis of the extremities, palsy of low extremities, lateral position. The animals received single dose of nooglutyl and Compound I at the same dose 20 mg/kg intraperitoneally within 3-3.5 hours after the surgery. Controlled animals were treated with saline. At onset of the experiment each group comprised 15-20 animals. Mortality of the rats was recorded throughout the observation period (14 days). Statistical analysis was made using parametrical and non-parametrical methods and Biostat software. Nimodipin administered at 01.mg/kg according to above scheme was considered as a standard.

[2] = tested on: rats with hemorrhagic stroke; experiment: Intracerebral posttraumatic hematoma (hemorrhagic stroke): survival; details: 20 mg/kg single dose intraperitoneally 3-3.5 hours after surgery
Description: as §1

rats with amnesia = experiment: Antiamnestic activity: passive avoidance response (PAR) with amnesia by maximum electric shock; details: for Time of presence of animals while PAR reproduction (seconds) in the dark chamber / Time of presence of animals while PAR reproduction (seconds) on the illuminated platform: rats with electric shock amnesia, 24 hours after learning; for Dose level with statistically significant antiamnestic effect of the same intensity: PAR, electric shock amnesia, intraperitoneally
Protocol: White nondescript male rats with body weight 250-280 g were used in the experiments. Each dose level was studied in 10 animals. Control animals received equivalent volume of distilled water. Nooglutyl was used as reference agent. Study compounds were administered intraperitoneally 40 minutes before the experiment. Experiment was carried out on the standard automated unit for passive avoidance response (Passive Avoidance) supplied by Lafayette Instrument Co., (USA) (Ader et al. Retention of a passive avoidance response as a function of the intensity and duration of electric shock. Psycho Sci. 1972, v. 26, p. 125-128; Voronina T. A. et al. “Textbook for Experimental (Preclinical Study) of novel pharmacological compounds”. Moscow, Medicina. 2005, p. 253-263 and 308-320). The unit was designed as small platform situated 1 m above the floor, which was illuminated with special lamp, and dark chamber with electrode floor connected with the platform. The rat was placed on illuminated platform in front of the entry to the dark chamber with its tail directed to the entry; the animal preferred dark chamber and quickly ran into it. In the dark chamber the animal received single pain stimulus with electric current (0.45 mA) and memorized that it was dangerous to enter dark chamber. Duration of the stimulus was determined from the running out of the animal from the dark chamber. To achieve amnesia maximum electric shock was used (50 Hz, 0.2 sec), which was made through corneal electrodes immediately after learning. Electric shock caused obliteration of the memory trace. Test for reproduction of passive avoidance response (PAR) (for retention of memory trace) was performed 24 hours after learning session and electric shock. The animal was placed on illuminated platform once again, and time of the presence on illuminated platform and dangerous dark chamber (no current was conducted to the floor during reproduction of PAR).
Control trained animals with reproduction of PAR without electric shock preferred to stay on illuminated platform. Obliteration of training with electric shock causes amnesia in the animals; as a result, the animals with short latent period enter dark chamber and stay there considerably longer than animals without amnesia (Table 2).

[3] = tested on: rats with induced ischemia; experiment: Passive avoidance response in animals with induced ischemia; details: 24 hours after learning, 180 seconds test
Description: In separate series of the experiments the animals learned in the test of passive avoidance response (PAR), which was formed in apparatus supplied by Lafayette Instrument Co. (USA) comprising brightly illuminated hanging platform connected to dark chamber with electrified floor. In the course of learning the rat entered dark chamber due to congenital hole reflex, and received pain electric stimulus.
These effects of nooglutyl and Compound Ia were significant compared with control at p<0.05.

aged rats (24 months) = experiment: Passive avoidance response in aged rats (24 months); details: 20 mg/kg 60 days, PAR reproduction 24 hours after learning; for Number of the rats, which did not entry dark chamber (%): 20 mg/kg
Protocol: White nondescript male rats (Wistar line): to adult animals at age 3 months with body weight 250-300 g and aged 24 month old animals with body weight 350-450 g were used in the study. Nooglutyl at dose level 20 mg/kg and Compound I were administered to aged rats intraperitoneally for 2 months followed by assessment of the effect on learning capacity impaired by age and neurological deficit. Analysis of variance with Student's test, variant portion method and U-test were employed for data processing.
Impact of Compound I on memory disorders in aged animals. To develop passive avoidance response (PAR) in rats the unit supplied by Lafayette Instrument Co., (USA) (Ader et al. Retention of a passive avoidance response as a function of the intensity and duration of electric shock. Psycho Sci. 1972, v. 26, p. 125-128; Voronina T. A. et al. “Textbook for Experimental (Preclinical Study) of novel pharmacological compounds”. Moscow, Medicina. 2005, p. 253-263 and 308-320) was used. […] Animals preferring illuminated platform were not used in this experiment. In the dark chamber the animal received single pain stimulus with electric current (0.45 mA), duration of the stimulus was determined from the running out of the animal from the dark chamber.

Row | SMILES | Number of animals with neurological symptoms, %: Circus movements ([1]; Day 1) | Number of animals with neurological symptoms, %: Palsy of 1-4 extremities ([1]; Day 1) | Number of animals with neurological symptoms, %: Paresis of 1-4 extremities ([1]; Day 1) | Number of animals with neurological symptoms, %: Weakness of extremities ([1]; Day 1) | Number of animals with neurological symptoms, %: Circus movements ([1]; Day 14) | Number of animals with neurological symptoms, %: Palsy of 1-4 extremities ([1]; Day 14) | Number of animals with neurological symptoms, %: Paresis of 1-4 extremities ([1]; Day 14) | Number of animals with neurological symptoms, %: Weakness of extremities ([1]; Day 14) | Rats with severe neurological symptoms ([1]; Day 14) | Number of animals which died in relation to total number of operated animals, absolute, Day 1 after surgery [2] | Number of animals which died in relation to total number of operated animals, absolute, Day 3 after surgery [2] | Number of animals which died in relation to total number of operated animals, absolute, Day 7 after surgery [2] | Number of animals which died in relation to total number of operated animals, absolute, Day 14 after surgery [2] | Number of animals which died, %, Day 1 after surgery [2] | Number of animals which died, %, Day 3 after surgery [2] | Number of animals which died, %, Day 7 after surgery [2] | Number of animals which died, %, Day 14 after surgery [2] | Time of presence of animals while PAR reproduction (seconds) in the dark chamber (rats with amnesia; 25 mg/kg intraperitoneally) | Time of presence of animals while PAR reproduction (seconds) on the illuminated platform (rats with amnesia; 25 mg/kg intraperitoneally) | Time of presence of animals while PAR reproduction (seconds) in the dark chamber (rats with amnesia; 50 mg/kg intraperitoneally) | further results
1 | O=C([O-])CC[C@H](NC(=O)c1cncc(O)c1)C(=O)[O-].[Ca+2] [Compound I, Calcium N-(5-hydroxynicotinoyl)-L-glutamate] | 10% | 0% | 10% | 20* % | 10% | 0% | 5* % | 0% | 15% | 1 of 20 | 2 of 20 | 2 of 20 | 2 of 20 | 5% | 10## % | 10## % | 10% | 64.2 ± 6.4 s | 55.8 ± 9.3 s | 40.6 ± 8.3 s | Number of animals which died, %, Day 14 after surgery ([2]; listed as compound I): 10## %; Time of presence of animals while PAR reproduction (seconds) on the illuminated platform (rats with amnesia; 50 mg/kg intraperitoneally): 79.4 ± 12.8 s; Dose level with statistically significant antiamnestic effect of the same intensity (rats with amnesia): 25 mg/kg; Latent period of entry to dark dangerous chamber [3]: 62.3 ± 7.2 s; Latent period of entry to dark chamber (c) (aged rats (24 months)): 96.9 ± 16.1 c; Number of the rats, which did not entry dark chamber (%) (aged rats (24 months)): 60%
2 | O=C(O)CC[C@H](NC(=O)c1cncc(O)c1)C(=O)O [Nooglutyl, N-(5-hydroxynicotinoyl)-L-glutamic acid, reference compound] | 5% | 0% | 25% | 30* % | 0% | 0% | 20* % | 10% | 25% | 3 of 20 | 4 of 20 | 4 of 20 | 4 of 20 | 15% | 20# % | 20# % | 20% | 73.3 ± 13.4 s | 46.7 ± 13.4 s | 65.7 ± 7.1 s | Number of animals which died, %, Day 14 after surgery ([2]; listed as nooglutyl): 20## %; Time of presence of animals while PAR reproduction (seconds) on the illuminated platform (rats with amnesia; 50 mg/kg intraperitoneally): 54.3 ± 10.2 s; Dose level with statistically significant antiamnestic effect of the same intensity (rats with amnesia): 50 mg/kg; Latent period of entry to dark dangerous chamber [3]: 56.2 ± 8.3 s; Latent period of entry to dark chamber (c) (aged rats (24 months)): 97.1 ± 20.3 c; Number of the rats, which did not entry dark chamber (%) (aged rats (24 months)): 60%

From US8030493B2, “Monovalent and divalent salts of N-(5-hydroxynicotinoil) -L-glutamic acid exhibiting psychotropic (antidepressant and anxiolytic), neuroprotective, geroprotective and cerebroprotective action” (Obschestvo S Ogranichennoy Otvetstvennostyu “Natsionalnaya …, priority 2006, dated 2011)
